The source of these data is ChEMBL document CHEMBL1147545, “Synthesis and monoamine transporter affinity of 3'-analogs of 2-beta-carbomethoxy-3-beta-(4'-iodophenyl)tropane (beta-CIT)” (Bioorg Med Chem Lett, 2004).

Test [1] has as its target Sodium-dependent dopamine transporter (Homo sapiens, UniProt Q01959). Nature of the test: Binding affinity to dopamine transporter in membranes of cells selectively expressing the human genes for DAT. In kind it is cell membranes.
Test [2] has as its target Sodium-dependent dopamine transporter (Rattus norvegicus, UniProt P23977). Nature of the test: Binding affinity to dopamine transporter (DAT) in rat forebrain tissue. In kind it is tissue-based.
Test [3] addresses Norepinephrine transporter (Rattus norvegicus, UniProt Q9WTR4). Briefly: Binding affinity to norepinephrine (NE) transporter in rat forebrain tissue. In kind it is tissue-based.
Test [4] deals with Sodium-dependent noradrenaline transporter (Homo sapiens, UniProt P23975). Nature of the test: Binding affinity to norepinephrine (NE) transporter in membranes of cells selectively expressing the human genes for NET. In kind it is cell membranes.
Chain of Sodium-dependent noradrenaline transporter (P23975 whole entry): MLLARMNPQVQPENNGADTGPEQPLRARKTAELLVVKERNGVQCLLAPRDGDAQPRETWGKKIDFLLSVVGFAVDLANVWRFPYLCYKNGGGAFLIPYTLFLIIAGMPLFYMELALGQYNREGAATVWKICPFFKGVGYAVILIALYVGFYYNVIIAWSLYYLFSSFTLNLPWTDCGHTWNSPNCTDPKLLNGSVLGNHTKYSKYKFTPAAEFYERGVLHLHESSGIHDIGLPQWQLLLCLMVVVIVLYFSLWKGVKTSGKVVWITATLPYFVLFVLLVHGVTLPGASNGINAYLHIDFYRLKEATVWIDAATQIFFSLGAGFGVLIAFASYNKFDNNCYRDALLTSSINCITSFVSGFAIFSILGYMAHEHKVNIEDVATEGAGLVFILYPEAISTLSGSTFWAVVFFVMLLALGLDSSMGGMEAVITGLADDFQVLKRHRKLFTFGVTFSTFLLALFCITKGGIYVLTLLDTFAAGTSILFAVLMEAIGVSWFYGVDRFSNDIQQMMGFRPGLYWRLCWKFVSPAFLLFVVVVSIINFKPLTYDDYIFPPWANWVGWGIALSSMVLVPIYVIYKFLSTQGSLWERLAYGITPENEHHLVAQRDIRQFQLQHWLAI
Test [5] has as its target Sodium-dependent serotonin transporter (Rattus norvegicus, UniProt P31652). Nature of the test: Binding affinity to serotonin transporter (SERT) in rat forebrain tissue. The test is classed as tissue-based.
The target in test [6] is Sodium-dependent serotonin transporter (Homo sapiens, UniProt P31645). Nature of the test: Binding affinity to serotonin transporter (SERT) in membranes of cells selectively expressing the human genes for SERT. The test is classed as cell membranes.
Chain of Sodium-dependent serotonin transporter (Homo sapiens, UniProt P31645) (P31645 whole entry): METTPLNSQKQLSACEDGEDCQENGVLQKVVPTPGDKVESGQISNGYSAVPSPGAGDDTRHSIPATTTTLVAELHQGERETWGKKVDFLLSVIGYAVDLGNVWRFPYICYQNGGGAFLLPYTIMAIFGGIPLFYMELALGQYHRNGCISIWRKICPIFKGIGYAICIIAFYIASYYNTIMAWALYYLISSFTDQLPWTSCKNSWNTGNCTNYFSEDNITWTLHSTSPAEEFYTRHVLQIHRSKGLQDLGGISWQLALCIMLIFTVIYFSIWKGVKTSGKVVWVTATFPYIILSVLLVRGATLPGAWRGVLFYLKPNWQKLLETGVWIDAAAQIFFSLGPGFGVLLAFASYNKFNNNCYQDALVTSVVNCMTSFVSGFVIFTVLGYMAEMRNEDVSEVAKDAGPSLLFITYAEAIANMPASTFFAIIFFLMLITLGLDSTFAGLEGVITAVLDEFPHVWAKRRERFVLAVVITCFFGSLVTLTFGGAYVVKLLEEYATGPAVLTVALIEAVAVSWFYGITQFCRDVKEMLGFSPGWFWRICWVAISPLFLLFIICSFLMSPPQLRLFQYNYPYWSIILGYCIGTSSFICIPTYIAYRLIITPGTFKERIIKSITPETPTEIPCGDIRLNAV
Test [7] concerns the target Monoamine transporters; serotonin & dopamine (Homo sapiens) (UniProt P31645+Q01959). Nature of the test: Binding selectivity ratio at human serotonin transporter versus dopamine transporter (hSERT/hDAT). In kind it is protein assay.

Structures are written as SMILES.

Chain of Sodium-dependent dopamine transporter (Rattus norvegicus, UniProt P23977) (P23977 whole entry): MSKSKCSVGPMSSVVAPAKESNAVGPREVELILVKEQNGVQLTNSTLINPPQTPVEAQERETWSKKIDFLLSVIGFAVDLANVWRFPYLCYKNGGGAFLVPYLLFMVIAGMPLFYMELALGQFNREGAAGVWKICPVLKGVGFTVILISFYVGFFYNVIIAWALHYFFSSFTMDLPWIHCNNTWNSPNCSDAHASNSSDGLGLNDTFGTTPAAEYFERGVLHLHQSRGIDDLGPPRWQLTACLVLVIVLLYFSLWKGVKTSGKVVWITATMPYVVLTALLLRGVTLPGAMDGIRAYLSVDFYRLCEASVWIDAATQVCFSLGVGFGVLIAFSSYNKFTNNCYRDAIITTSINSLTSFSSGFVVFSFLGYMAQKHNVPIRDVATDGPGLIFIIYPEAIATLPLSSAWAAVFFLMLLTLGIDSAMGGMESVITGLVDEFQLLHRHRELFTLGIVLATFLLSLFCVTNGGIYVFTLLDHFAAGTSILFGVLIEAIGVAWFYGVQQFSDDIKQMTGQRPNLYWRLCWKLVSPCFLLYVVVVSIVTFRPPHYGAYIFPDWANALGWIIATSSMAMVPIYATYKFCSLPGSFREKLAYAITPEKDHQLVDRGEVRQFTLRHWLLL
Chain of Monoamine transporters; serotonin & dopamine (Homo sapiens) (P31645 whole entry, looked up): as the sequence (P31645 whole entry) above
Chain of Monoamine transporters; serotonin & dopamine (Homo sapiens) (Q01959 whole entry, looked up): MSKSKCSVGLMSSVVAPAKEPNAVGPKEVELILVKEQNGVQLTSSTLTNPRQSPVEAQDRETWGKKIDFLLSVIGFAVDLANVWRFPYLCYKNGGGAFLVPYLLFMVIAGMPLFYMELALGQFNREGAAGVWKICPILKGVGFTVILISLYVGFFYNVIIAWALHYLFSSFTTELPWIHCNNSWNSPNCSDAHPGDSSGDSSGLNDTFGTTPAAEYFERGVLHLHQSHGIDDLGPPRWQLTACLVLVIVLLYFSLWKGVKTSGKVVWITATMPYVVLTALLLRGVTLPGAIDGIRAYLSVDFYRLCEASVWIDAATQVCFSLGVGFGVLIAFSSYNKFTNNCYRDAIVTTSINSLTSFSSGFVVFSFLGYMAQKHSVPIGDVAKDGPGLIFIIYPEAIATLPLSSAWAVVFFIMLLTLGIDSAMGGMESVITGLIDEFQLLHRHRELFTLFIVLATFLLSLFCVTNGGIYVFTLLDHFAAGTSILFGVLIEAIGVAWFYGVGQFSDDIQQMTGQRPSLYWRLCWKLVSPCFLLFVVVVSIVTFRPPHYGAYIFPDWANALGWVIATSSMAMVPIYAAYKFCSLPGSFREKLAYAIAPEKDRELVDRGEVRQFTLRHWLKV
Chain of Sodium-dependent serotonin transporter (Rattus norvegicus, UniProt P31652) (P31652 whole entry): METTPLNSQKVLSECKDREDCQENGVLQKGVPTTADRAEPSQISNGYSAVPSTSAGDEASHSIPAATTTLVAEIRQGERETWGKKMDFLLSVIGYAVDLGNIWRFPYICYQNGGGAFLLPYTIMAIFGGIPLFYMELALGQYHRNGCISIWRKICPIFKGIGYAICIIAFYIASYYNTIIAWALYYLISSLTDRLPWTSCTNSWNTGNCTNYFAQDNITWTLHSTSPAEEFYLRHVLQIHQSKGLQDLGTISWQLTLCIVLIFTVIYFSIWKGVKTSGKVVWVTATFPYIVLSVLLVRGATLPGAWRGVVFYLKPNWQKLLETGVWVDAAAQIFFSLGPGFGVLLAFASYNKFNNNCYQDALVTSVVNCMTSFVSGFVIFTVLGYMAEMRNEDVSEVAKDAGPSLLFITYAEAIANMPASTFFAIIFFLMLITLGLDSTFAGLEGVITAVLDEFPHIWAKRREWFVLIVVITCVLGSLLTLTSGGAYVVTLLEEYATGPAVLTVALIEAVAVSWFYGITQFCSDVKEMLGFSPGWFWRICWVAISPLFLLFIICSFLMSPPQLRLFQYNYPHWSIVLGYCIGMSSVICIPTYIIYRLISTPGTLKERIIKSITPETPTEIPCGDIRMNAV
Chain of Norepinephrine transporter (Q9WTR4 whole entry): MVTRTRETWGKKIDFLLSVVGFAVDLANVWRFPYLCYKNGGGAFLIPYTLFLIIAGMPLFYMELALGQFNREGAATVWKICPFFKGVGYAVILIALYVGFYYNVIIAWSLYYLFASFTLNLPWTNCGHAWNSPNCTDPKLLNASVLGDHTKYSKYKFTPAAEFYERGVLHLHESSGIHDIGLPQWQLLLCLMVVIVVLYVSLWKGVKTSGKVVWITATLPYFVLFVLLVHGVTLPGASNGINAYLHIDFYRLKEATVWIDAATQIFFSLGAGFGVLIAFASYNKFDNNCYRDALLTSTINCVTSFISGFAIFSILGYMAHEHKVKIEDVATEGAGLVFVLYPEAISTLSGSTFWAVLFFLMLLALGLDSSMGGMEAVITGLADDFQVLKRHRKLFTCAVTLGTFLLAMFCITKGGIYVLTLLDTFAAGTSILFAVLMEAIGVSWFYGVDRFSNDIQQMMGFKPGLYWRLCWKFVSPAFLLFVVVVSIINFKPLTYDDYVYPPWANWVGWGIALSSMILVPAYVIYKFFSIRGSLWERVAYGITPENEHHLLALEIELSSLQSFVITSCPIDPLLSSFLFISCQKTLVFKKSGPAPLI
Chain of Sodium-dependent dopamine transporter (Homo sapiens, UniProt Q01959) (Q01959 whole entry): as the sequence (Q01959 whole entry, looked up) above

For `COC(=O)C1C2CCC(CC1c1cccc(I)c1)N2` (stereo not drawn), the Ki amounted to 438 nM in test [1]; 21.2 nM in test [2]; 282 nM in test [3]; 118 nM in test [4]; 1.35 nM in test [5]; 1.23 nM in test [6]. Also, in test [7], the Selectivity ratio was 356.
`COC(=O)C1C(c2cccc(-c3ccco3)c2)CC2CCC1N2C` (stereo not drawn): the Ki in test [1] is 54 nM; in test [2], 30.8 nM; in test [3], 10000 nM; in test [4] it was 3020 nM; in test [5], 41.7 nM; in test [6], 55.1 nM. Further, in test [7], the Selectivity ratio was 0.98.
With `COC(=O)C1C(c2cccc(I)c2)CC2CCC1N2C` (stereo not drawn), the Ki is 182 nM in test [1]; 100 nM in test [2]; over 10000 nM in test [3]; 1040 nM in test [4]; 9.82 nM in test [5]; 9.63 nM in test [6]. For the same compound, in test [7], the Selectivity ratio worked out at 18.9.
With `COC(=O)C1C(c2cccc(-c3ccccc3)c2)CC2CCC1N2C` (stereo not drawn), the inhibition constant Ki was 8.83 nM in test [1]; 9.59 nM in test [2]; over 10000 nM in test [3]; 1360 nM in test [4]; 35.2 nM in test [5]; 38.6 nM in test [6]. The Selectivity ratio in test [7] was 0.229.
For `COC(=O)C1C(c2cccc(-c3ccsc3)c2)CC2CCC1N2C` (stereo not drawn), the inhibition constant Ki was 29.8 nM in test [1]; 23.7 nM in test [2]; over 10000 nM in test [3]; over 20000 nM in test [4]; 82.5 nM in test [5]; 74.1 nM in test [6]. Moreover, the Selectivity ratio in test [7] turned out to be 0.402.
In test [5], `COC(=O)C1C2CCC(CC1c1ccc(I)cc1)N2` (stereo not drawn) came in with a Ki of 0.062 nM.
Consider `COC(=O)[C@@H]1C2CC[C@H](C[C@@H]1c1ccc(I)cc1)N2C`, for which the Ki in test [4] is 11.2 nM; in test [5], 0.41 nM.
